Test results from the kinase profiling compilation of Christmann-Franck et al. (2016).

Tests used:
Test in all cases: radiometric filter-binding kinase assay, Kinase HotSpot
Details in all cases: compound 0.5 µM; ATP 10 µM
VRK1 (human) = VRK1 (human) (UniProt Q99986)
CHEK2 (human) = CHEK2 (human) (UniProt O96017)
CLK1 (human) = CLK1 (human) (UniProt P49759)
CSF1R (human) = CSF1R (human) (UniProt P07333)
HCK (human) = HCK (human) (UniProt P08631)
TYRO3 (human) = TYRO3 (human) (UniProt Q06418)
RET (human) = RET (human) (UniProt P07949)
CSNK1G2 (human) = CSNK1G2 (human) (UniProt P78368)
FGFR1 (human) = FGFR1 (human) (UniProt P11362)
MERTK (human) = MERTK (human) (UniProt Q12866)
MAP3K14 (human) = MAP3K14 (human) (UniProt Q99558)
DYRK2 (human) = DYRK2 (human) (UniProt Q92630)
RPS6KA4 KD2 (human) = RPS6KA4 KD2 (human) (UniProt O75676)
CAMK2D (human) = CAMK2D (human) (UniProt Q13557)
EPHA2 (human) = EPHA2 (human) (UniProt P29317)
RPS6KB1 (human) = RPS6KB1 (human) (UniProt P23443)
Chain of RPS6KB1 (human) (P23443 whole entry, looked up): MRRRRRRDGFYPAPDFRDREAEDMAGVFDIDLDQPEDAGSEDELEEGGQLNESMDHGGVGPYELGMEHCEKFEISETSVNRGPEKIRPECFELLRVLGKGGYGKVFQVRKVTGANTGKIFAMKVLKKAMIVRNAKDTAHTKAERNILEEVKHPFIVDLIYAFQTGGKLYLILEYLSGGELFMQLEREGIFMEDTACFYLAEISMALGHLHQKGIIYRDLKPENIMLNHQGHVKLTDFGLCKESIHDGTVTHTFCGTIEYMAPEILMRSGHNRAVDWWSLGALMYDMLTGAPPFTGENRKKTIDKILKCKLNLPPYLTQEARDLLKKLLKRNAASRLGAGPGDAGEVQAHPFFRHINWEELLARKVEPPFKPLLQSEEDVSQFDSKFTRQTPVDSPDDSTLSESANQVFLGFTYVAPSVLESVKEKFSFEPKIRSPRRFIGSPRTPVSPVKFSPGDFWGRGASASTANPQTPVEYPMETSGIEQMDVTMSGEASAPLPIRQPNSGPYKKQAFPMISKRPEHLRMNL

NEK6 (human) = NEK6 (human) (UniProt Q9HC98)
Chain of NEK6 (human) (Q9HC98 whole entry, looked up): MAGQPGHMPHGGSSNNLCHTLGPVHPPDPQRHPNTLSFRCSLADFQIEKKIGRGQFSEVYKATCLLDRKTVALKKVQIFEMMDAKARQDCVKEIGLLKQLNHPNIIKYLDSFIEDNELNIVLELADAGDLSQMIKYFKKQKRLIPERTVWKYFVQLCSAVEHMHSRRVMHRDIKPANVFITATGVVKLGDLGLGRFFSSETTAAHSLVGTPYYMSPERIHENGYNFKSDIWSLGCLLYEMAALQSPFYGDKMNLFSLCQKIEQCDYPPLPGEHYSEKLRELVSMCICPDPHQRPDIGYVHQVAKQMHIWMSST

BRSK1 (human) = BRSK1 (human) (UniProt Q8TDC3)
MAP2K1 (human) = MAP2K1 (human) (UniProt Q02750)
Chain of MAP2K1 (human) (Q02750 whole entry, looked up): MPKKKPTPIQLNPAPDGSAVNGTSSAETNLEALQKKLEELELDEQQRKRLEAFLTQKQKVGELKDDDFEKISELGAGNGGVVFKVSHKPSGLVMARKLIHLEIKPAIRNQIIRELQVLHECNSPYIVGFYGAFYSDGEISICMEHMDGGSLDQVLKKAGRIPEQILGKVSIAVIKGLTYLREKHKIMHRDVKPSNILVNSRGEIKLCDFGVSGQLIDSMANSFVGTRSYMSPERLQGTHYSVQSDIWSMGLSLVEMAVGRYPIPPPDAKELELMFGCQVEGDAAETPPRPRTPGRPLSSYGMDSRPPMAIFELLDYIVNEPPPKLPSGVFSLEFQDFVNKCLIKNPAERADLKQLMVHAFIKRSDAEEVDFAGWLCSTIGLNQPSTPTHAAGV

MAP2K2 (human) = MAP2K2 (human) (UniProt P36507)
Chain of MAP2K2 (human) (P36507 whole entry, looked up): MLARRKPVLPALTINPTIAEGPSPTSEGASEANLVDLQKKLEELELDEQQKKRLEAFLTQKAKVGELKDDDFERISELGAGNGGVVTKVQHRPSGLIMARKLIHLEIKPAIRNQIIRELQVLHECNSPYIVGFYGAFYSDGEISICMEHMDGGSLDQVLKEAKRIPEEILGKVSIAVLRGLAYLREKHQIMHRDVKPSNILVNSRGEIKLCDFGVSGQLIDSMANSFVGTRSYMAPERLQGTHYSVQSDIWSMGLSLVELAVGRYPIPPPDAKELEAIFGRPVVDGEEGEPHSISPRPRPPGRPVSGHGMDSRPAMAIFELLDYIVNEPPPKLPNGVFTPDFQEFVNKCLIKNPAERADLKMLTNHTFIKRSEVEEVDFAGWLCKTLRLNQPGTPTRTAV

CDK6 CCND3 (human) = CDK6 CCND3 (human) (UniProt P30281+Q00534)
Chain of CDK6 CCND3 (human) (P30281 whole entry, looked up): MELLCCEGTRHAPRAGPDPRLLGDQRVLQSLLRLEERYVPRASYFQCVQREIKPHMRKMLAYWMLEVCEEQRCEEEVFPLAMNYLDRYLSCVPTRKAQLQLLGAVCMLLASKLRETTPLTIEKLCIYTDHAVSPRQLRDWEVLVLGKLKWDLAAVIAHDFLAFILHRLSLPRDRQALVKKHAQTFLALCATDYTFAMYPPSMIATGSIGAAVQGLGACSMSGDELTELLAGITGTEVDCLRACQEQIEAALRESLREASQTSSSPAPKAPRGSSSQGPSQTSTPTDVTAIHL
Chain of CDK6 CCND3 (human) (Q00534 whole entry, looked up): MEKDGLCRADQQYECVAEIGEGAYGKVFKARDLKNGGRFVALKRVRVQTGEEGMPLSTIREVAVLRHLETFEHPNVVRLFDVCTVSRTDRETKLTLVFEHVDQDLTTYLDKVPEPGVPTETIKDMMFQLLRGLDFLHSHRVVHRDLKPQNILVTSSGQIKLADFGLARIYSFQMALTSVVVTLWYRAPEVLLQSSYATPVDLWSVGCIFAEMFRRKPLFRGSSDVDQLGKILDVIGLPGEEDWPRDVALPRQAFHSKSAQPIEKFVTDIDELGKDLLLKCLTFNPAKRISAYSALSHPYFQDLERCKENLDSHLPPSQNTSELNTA

CDK5 CDK5R1 p35 (human) = CDK5 CDK5R1 p35 (human) (UniProt Q00535+Q15078)
GSG2 (human) = GSG2 (human) (UniProt Q8TF76)
SRPK1 (human) = SRPK1 (human) (UniProt Q96SB4)
NEK2 (human) = NEK2 (human) (UniProt P51955)
RAF1 (human) = RAF1 (human) (UniProt P04049)
DYRK1A (human) = DYRK1A (human) (UniProt Q13627)
FLT3 (human) = FLT3 (human) (UniProt P36888)
TGFBR2 (human) = TGFBR2 (human) (UniProt P37173)
Chain of TGFBR2 (human) (P37173 whole entry, looked up): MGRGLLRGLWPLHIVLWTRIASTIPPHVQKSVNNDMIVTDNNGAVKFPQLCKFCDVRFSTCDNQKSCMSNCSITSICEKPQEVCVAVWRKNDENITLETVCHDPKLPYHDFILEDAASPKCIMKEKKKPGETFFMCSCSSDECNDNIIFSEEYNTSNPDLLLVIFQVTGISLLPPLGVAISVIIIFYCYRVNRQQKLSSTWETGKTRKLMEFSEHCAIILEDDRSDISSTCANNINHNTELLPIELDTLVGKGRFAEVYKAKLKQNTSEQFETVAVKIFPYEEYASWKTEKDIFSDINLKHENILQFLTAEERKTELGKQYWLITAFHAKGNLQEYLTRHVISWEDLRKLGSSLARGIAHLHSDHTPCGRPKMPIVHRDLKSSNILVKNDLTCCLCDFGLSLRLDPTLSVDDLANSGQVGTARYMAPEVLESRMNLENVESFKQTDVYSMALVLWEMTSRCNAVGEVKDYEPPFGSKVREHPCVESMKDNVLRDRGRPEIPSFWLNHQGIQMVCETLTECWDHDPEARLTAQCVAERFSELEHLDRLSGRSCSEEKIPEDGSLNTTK

DYRK3 (human) = DYRK3 (human) (UniProt O43781)
SRMS (human) = SRMS (human) (UniProt Q9H3Y6)
PRKD2 (human) = PRKD2 (human) (UniProt Q9BZL6)
Chain of PRKD2 (human) (Q9BZL6 whole entry, looked up): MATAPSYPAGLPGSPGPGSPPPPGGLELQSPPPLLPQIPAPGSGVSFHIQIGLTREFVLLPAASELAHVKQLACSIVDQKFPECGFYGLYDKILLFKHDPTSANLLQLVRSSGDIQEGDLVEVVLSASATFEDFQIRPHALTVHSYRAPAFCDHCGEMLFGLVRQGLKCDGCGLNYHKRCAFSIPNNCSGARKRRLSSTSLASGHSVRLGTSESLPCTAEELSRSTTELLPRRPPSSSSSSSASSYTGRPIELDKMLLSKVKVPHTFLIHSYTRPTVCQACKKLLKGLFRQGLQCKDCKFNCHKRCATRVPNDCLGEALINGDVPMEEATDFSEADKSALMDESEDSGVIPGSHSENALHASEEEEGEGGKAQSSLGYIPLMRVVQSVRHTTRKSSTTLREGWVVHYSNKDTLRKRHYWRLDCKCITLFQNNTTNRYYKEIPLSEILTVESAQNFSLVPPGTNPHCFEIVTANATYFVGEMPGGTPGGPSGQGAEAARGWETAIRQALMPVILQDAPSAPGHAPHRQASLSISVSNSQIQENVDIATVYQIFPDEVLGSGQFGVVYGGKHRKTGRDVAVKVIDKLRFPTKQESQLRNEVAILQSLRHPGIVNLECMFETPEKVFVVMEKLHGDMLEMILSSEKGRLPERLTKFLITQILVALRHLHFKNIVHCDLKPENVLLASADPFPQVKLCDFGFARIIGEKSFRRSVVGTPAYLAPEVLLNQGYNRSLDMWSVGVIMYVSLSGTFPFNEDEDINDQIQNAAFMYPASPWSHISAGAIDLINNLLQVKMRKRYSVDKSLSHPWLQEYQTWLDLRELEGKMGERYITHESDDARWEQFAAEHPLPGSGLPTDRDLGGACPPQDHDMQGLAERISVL

PLK3 (human) = PLK3 (human) (UniProt Q9H4B4)
EPHB3 (human) = EPHB3 (human) (UniProt P54753)
FRK (human) = FRK (human) (UniProt P42685)
TEC (human) = TEC (human) (UniProt P42680)
BRSK2 (human) = BRSK2 (human) (UniProt Q8IWQ3)
RPS6KA6 KD1 KD2 (human) = RPS6KA6 KD1 KD2 (human) (UniProt Q9UK32)
DYRK1B (human) = DYRK1B (human) (UniProt Q9Y463)
Chain of DYRK1B (human) (Q9Y463 whole entry, looked up): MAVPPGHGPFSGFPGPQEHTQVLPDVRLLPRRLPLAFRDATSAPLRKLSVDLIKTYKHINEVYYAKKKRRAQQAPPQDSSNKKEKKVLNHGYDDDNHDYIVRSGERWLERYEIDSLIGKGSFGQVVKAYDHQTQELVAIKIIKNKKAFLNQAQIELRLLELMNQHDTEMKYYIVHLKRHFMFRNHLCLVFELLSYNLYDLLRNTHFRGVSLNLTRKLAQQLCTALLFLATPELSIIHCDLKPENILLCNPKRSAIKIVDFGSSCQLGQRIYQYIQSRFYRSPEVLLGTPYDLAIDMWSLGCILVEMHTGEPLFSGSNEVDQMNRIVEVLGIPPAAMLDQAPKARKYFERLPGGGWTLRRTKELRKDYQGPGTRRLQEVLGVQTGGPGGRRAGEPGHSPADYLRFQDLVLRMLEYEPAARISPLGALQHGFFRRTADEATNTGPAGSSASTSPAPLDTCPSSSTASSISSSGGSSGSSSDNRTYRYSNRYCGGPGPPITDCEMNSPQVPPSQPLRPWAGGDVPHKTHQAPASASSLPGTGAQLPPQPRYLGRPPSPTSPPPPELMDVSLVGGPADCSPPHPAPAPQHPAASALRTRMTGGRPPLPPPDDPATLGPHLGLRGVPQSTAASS

ACVR1B (human) = ACVR1B (human) (UniProt P36896)
SRPK2 (human) = SRPK2 (human) (UniProt P78362)
CSNK1A1 (human) = CSNK1A1 (human) (UniProt P48729)

Chain of CHEK2 (human) (O96017 whole entry, looked up): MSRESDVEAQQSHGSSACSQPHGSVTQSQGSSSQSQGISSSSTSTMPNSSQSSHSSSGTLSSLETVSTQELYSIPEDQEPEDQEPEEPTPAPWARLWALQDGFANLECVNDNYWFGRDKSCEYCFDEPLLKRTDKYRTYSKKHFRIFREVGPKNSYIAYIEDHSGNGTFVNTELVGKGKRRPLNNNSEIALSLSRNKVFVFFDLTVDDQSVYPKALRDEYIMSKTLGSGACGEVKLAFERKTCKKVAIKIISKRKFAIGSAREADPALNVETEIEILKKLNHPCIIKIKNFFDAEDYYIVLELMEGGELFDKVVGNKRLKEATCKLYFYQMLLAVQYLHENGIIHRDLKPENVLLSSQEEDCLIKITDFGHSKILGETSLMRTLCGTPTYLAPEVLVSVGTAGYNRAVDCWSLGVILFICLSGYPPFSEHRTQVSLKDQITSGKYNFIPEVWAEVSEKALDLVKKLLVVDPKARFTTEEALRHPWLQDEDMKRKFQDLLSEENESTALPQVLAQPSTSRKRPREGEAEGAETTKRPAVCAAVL

NC(=O)c1ccc(N(C(N)=O)c2c(F)cccc2F)nc1-c1ccc(F)cc1F showed a residual activity (VRK1 (human)) of 104%, a residual activity (CHEK2 (human)) of 97.6% and a residual activity (CLK1 (human)) of 108%. For the same compound, the residual activity (CSF1R (human)) was 109%, the residual activity (HCK (human)) was 89.5% and the residual activity (TYRO3 (human)) was 101%. For the same compound, the residual activity (RET (human)) was 93.1%, the residual activity (CSNK1G2 (human)) was 99.6% and the residual activity (FGFR1 (human)) was 99%. It also gave a residual activity (MERTK (human)) of 114%, a residual activity (MAP3K14 (human)) of 114% and a residual activity (DYRK2 (human)) of 102%. The residual activity (RPS6KA4 KD2 (human)) was 99%, the residual activity (CAMK2D (human)) was 87.3% and the residual activity (EPHA2 (human)) was 89%. For the same compound, the residual activity (RPS6KB1 (human)) was 100%, the residual activity (NEK6 (human)) was 90.5% and the residual activity (BRSK1 (human)) was 94.2%. The residual activity (MAP2K1 (human)) was 89%, the residual activity (MAP2K2 (human)) was 92.3% and the residual activity (CDK6 CCND3 (human)) was 119%. For the same compound, the residual activity (CDK5 CDK5R1 p35 (human)) was 99.9%, the residual activity (GSG2 (human)) was 81.3% and the residual activity (SRPK1 (human)) was 99%. For the same compound, the residual activity (NEK2 (human)) was 109%, the residual activity (RAF1 (human)) was 97.5% and the residual activity (DYRK1A (human)) was 98.7%. It also gave a residual activity (FLT3 (human)) of 97.2%, a residual activity (TGFBR2 (human)) of 102% and a residual activity (DYRK3 (human)) of 105%. For the same compound, the residual activity (SRMS (human)) was 92.9%, the residual activity (PRKD2 (human)) was 81.8% and the residual activity (PLK3 (human)) was 94.7%. It also gave a residual activity (EPHB3 (human)) of 65.8%, a residual activity (FRK (human)) of 106% and a residual activity (TEC (human)) of 114%. For the same compound, the residual activity (BRSK2 (human)) was 96.6%, the residual activity (RPS6KA6 KD1 KD2 (human)) was 101% and the residual activity (DYRK1B (human)) was 97.1%. The residual activity (ACVR1B (human)) was 113%.

In the case of O=C1Nc2cc(Br)ccc2/C1=C1/Nc2ccccc2/C1=N\O, the residual activity (VRK1 (human)) is reported as 98%, the residual activity (CHEK2 (human)) is reported as 48.3% and the residual activity (CLK1 (human)) is reported as 93.1%. The residual activity (CSF1R (human)) was 74.4%, the residual activity (HCK (human)) was 13.3% and the residual activity (TYRO3 (human)) was 81.6%. The residual activity (RET (human)) was 0.0602%, the residual activity (CSNK1G2 (human)) was 105% and the residual activity (FGFR1 (human)) was 45.1%. It also gave a residual activity (MERTK (human)) of 79.4%, a residual activity (MAP3K14 (human)) of 89.6% and a residual activity (SRPK2 (human)) of 63.9%. For the same compound, the residual activity (RPS6KA4 KD2 (human)) was 56.1%, the residual activity (CAMK2D (human)) was 23% and the residual activity (EPHA2 (human)) was 70.9%. For the same compound, the residual activity (RPS6KB1 (human)) was 79.6%, the residual activity (NEK6 (human)) was 99.9% and the residual activity (BRSK1 (human)) was 14.6%. The residual activity (MAP2K1 (human)) was 103%, the residual activity (MAP2K2 (human)) was 92.4% and the residual activity (CDK6 CCND3 (human)) was 25.4%. The residual activity (CDK5 CDK5R1 p35 (human)) was 12.4%, the residual activity (GSG2 (human)) was 95.9% and the residual activity (SRPK1 (human)) was 94.9%. The residual activity (NEK2 (human)) was 95.5%, the residual activity (RAF1 (human)) was 103% and the residual activity (DYRK1A (human)) was 101%. The residual activity (FLT3 (human)) was 4.02%, the residual activity (CSNK1A1 (human)) was 95.1% and the residual activity (TGFBR2 (human)) was 106%. The residual activity (DYRK3 (human)) was 104%, the residual activity (SRMS (human)) was 99.6% and the residual activity (PRKD2 (human)) was 94.1%. The residual activity (PLK3 (human)) was 95.3%, the residual activity (EPHB3 (human)) was 103% and the residual activity (FRK (human)) was 23.2%. The residual activity (TEC (human)) was 104%, the residual activity (BRSK2 (human)) was 19.4% and the residual activity (RPS6KA6 KD1 KD2 (human)) was 43.1%. For the same compound, the residual activity (DYRK1B (human)) was 80.3% and the residual activity (ACVR1B (human)) was 100%.

Work on CC(C)(C)c1nc2c3ccc(F)cc3c3c(=O)[nH]ccc3c2[nH]1 yielded a residual activity (VRK1 (human)) of 82.2%, a residual activity (CHEK2 (human)) of 0.717% and a residual activity (CLK1 (human)) of 81.6%. It also gave a residual activity (CSF1R (human)) of 93%, a residual activity (HCK (human)) of 84.8% and a residual activity (TYRO3 (human)) of 90.3%. For the same compound, the residual activity (RET (human)) was 18.3%, the residual activity (CSNK1G2 (human)) was 100% and the residual activity (FGFR1 (human)) was 75.8%. For the same compound, the residual activity (MERTK (human)) was 79.4%, the residual activity (MAP3K14 (human)) was 71.3% and the residual activity (DYRK2 (human)) was 62.5%. The residual activity (SRPK2 (human)) was 70.5%, the residual activity (RPS6KA4 KD2 (human)) was 44.7% and the residual activity (CAMK2D (human)) was 59.4%. It also gave a residual activity (EPHA2 (human)) of 98.5%, a residual activity (RPS6KB1 (human)) of 74.1% and a residual activity (NEK6 (human)) of 82.5%. It also gave a residual activity (BRSK1 (human)) of 15.4%, a residual activity (MAP2K1 (human)) of 94.9% and a residual activity (MAP2K2 (human)) of 82.1%. For the same compound, the residual activity (CDK6 CCND3 (human)) was 87.8%, the residual activity (GSG2 (human)) was 67.2% and the residual activity (SRPK1 (human)) was 115%. It also gave a residual activity (RAF1 (human)) of 134%, a residual activity (DYRK1A (human)) of 102% and a residual activity (FLT3 (human)) of 13.6%. The residual activity (CSNK1A1 (human)) was 94.6%, the residual activity (TGFBR2 (human)) was 58.2% and the residual activity (DYRK3 (human)) was 105%. For the same compound, the residual activity (SRMS (human)) was 98.7%, the residual activity (PRKD2 (human)) was 6.13% and the residual activity (PLK3 (human)) was 11%. The residual activity (EPHB3 (human)) was 87.1%, the residual activity (FRK (human)) was 104% and the residual activity (TEC (human)) was 106%. The residual activity (BRSK2 (human)) was 21.4%, the residual activity (RPS6KA6 KD1 KD2 (human)) was 33.9% and the residual activity (DYRK1B (human)) was 88.2%.
